Data taken from patent US20260345555A1, “Compositions and Methods for Protecting Salivary Glands from Off-Target Radiation Damage” (University of Rochester, priority 2022, published 2026).
Entries after “also recorded” stand apart in the source; their conditions may differ.

How the values were obtained:
COX-1 = details: role: inhibitor; cited from earlier work
[1] = in vivo; cited from earlier work
[2] = in vivo; cited from earlier work; remark: listed apart in the source
COX-2 = details: role: inhibitor; cited from earlier work
[3] = test system: senescence-associated β-galactosidase in salivary gland cell clusters (SGm); assay: Cellular senescence assay (SPiDER-βGal) in salivary gland tissue chip, 5 days post-radiation (15 Gy); also second screen of library hits at 100 μM; type: cell-based, mouse; details: for radioprotection in dose response, senescence assay / Estimated EC50, Senescence / protection against radiation-induced senescence: 15 Gy; for Estimated EC50, Senescence: nonlinear fit in Prism of dose response curves; for double hit in the drug screen: glutathione and senescence assays, 100 μM, statistically similar to 0 Gy; for protection against radiation-induced senescence: 5 days post-radiation; for Senescence (radioprotection): key: +: radioprotection; ~: partial radioprotection; —: no radioprotection
lymphocyte cells = details: cited from earlier work

Compound: CCCCC1C(=O)N(c2ccccc2)N(c2ccccc2)C1=O [Phenylbutazone]
- COX-1 inhibition (COX-1): inhibits
- bioavailability [1]: up to 90%
- half-life [1]: 50 to 105 h
- adverse effects [2]: rare but severe blood disorders, including anemia and leukopenia
- COX-2 inhibition (COX-2): inhibits
- radioprotection in dose response, senescence assay [3]: only partial protection
- Estimated EC50, Senescence [3]: 0.05 µM

Compound: CCn1cc(C(=O)O)c(=O)c2cc(F)c(N3CCNCC3)nc21 [Enoxacin (Penetrex)]
- double hit in the drug screen [3]: double hits
- Estimated EC50, Senescence [3]: 0.5 µM
- EC50 (lymphocyte cells; radioprotection, read-out: EC50, viability of lymphocyte cells): 13 µM
- radioprotection of lymphocytes (lymphocyte cells; viability of lymphocytes as primary readout): robust radioprotectors

Compound: NCCCNCCS [WR-1065]
- Senescence (radioprotection) ([3]; 1 mM): +
- protection against radiation-induced senescence ([3]; 1 mM): complete radioprotection
- Senescence (radioprotection) ([3]; 4 mM): +
- protection against radiation-induced senescence ([3]; 4 mM): complete radioprotection; also recorded: restored to levels equivalent to 0 Gy

Compound: Doripenem hydrate
- radioprotection in dose response, senescence assay [3]: variable protection
- double hit in the drug screen [3]: double hits
- Estimated EC50, Senescence [3]: 16.4 µM
